Results as given in PubChem BioAssay (NCI).
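Assay format: 96-well plates, 48-hour exposure. TGI: total growth inhibition.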

Experiments:
Experiment in all cases: NCI tumour cell line growth inhibition, 48 h
[1] = tested on: DLD-1 colon
[2] = tested on: M19-MEL melanoma
[3] = tested on: COLO 205 colon
[4] = tested on: DU-145 prostate
[5] = tested on: M14 melanoma
[6] = tested on: UO-31 renal
[7] = tested on: K-562 leukemia
[8] = tested on: SK-MEL-5 melanoma
[9] = tested on: SF-295 CNS
[10] = tested on: SR leukemia
[11] = tested on: U251 CNS
[12] = tested on: XF 498 CNS
[13] = tested on: TK-10 renal
[14] = tested on: PC-3 prostate
[15] = tested on: HOP-62 NSCLC
[16] = tested on: OVCAR-5 ovarian
[17] = tested on: SF-539 CNS
[18] = tested on: MDA-MB-231 breast
[19] = tested on: SN12C renal
[20] = tested on: CCRF-CEM leukemia
[21] = tested on: OVCAR-3 ovarian
[22] = tested on: RPMI-8226 leukemia
[23] = tested on: MCF7 breast
[24] = tested on: IGROV1 ovarian
[25] = tested on: HOP-92 NSCLC
[26] = tested on: LOX IMVI melanoma
[27] = tested on: RXF-631 renal
[28] = tested on: SF-268 CNS
[29] = tested on: NCI-H23 lung
[30] = tested on: SNB-19 CNS
[31] = tested on: MOLT-4 leukemia
[32] = tested on: MDA-MB-435
[33] = tested on: HCT-116 colon
[34] = tested on: HOP-18 NSCLC
[35] = tested on: UACC-257 melanoma
[36] = tested on: SNB-78 CNS
[37] = tested on: DMS 114 small cell lung
[38] = tested on: HCT-15 colon
[39] = tested on: HL-60(TB) leukemia
[40] = tested on: SW-620 colon
[41] = tested on: UACC-62 melanoma
[42] = tested on: DMS 273 small cell lung
[43] = tested on: NCI-H226 lung
[44] = tested on: LXFL 529 NSCLC
[45] = tested on: ACHN renal
[46] = tested on: T-47D breast
[47] = tested on: SK-MEL-2 melanoma
[48] = tested on: NCI/ADR-RES ovarian
[49] = tested on: HCC-2998 colon
[50] = tested on: HT29 colon
[51] = tested on: CAKI-1 renal
[52] = tested on: HS 578T breast
[53] = tested on: 786-0 renal
[54] = tested on: EKVX NSCLC
[55] = tested on: BT-549 breast
[56] = tested on: A498 renal
[57] = tested on: SK-MEL-28 melanoma
[58] = tested on: MDA-N
[59] = tested on: A549 NSCLC
[60] = tested on: SK-OV-3 ovarian
[61] = tested on: MALME-3M melanoma
[62] = tested on: KM20L2 colon
[63] = tested on: NCI-H522 lung
[64] = tested on: SNB-75 CNS
[65] = tested on: OVCAR-4 ovarian
[66] = tested on: RXF 393 renal
[67] = tested on: OVCAR-8 ovarian
[68] = tested on: NCI-H460 lung
[69] = tested on: KM12 colon

## C=C1CC2(OC1=O)c1ccccc1C=Cc1ccccc12
[1]
  TGI: 3.76 µM
[2]
  TGI: 11.8 µM
[3]
  TGI: 5.82 µM
[4]
  TGI: 23.6 µM
[5]
  TGI: 10 µM
[6]
  TGI: 15.7 µM
[7]
  TGI: 10.7 µM
[8]
  TGI: 16.4 µM
[9]
  TGI: 32.1 µM
[10]
  TGI: 9.17 µM
[11]
  TGI: 15.5 µM
[12]
  TGI: 26.5 µM
[13]
  TGI: 11.1 µM
[14]
  TGI: 16.3 µM
[15]
  TGI: 24.9 µM
[16]
  TGI: 22.5 µM
[17]
  TGI: 6.72 µM
[18]
  TGI: 5.41 µM
[19]
  TGI: 7.14 µM
[20]
  TGI: 6.58 µM
[21]
  TGI: 8.9 µM
[22]
  TGI: 8.68 µM
[23]
  TGI: 6.54 µM
[24]
  TGI: 15.9 µM
[25]
  TGI: 3.44 µM
[26]
  TGI: 4.1 µM
[27]
  TGI: 33.1 µM
[28]
  TGI: 17.4 µM
[29]
  TGI: 14.7 µM
[30]
  TGI: 29.9 µM
[31]
  TGI: 5.4 µM
[32]
  TGI: 3.37 µM
[33]
  TGI: 5.4 µM
[34]
  TGI: 27.4 µM
[35]
  TGI: 10.2 µM
[36]
  TGI: 9.3 µM
[37]
  TGI: 21 µM
[38]
  TGI: 7.77 µM
[39]
  TGI: 4.86 µM
[40]
  TGI: 4.54 µM
[41]
  TGI: 9.96 µM
[42]
  TGI: 28.2 µM
[43]
  TGI: 11.2 µM
[44]
  TGI: 7.14 µM
[45]
  TGI: 9.83 µM
[46]
  TGI: 4.37 µM
[47]
  TGI: 16.5 µM
[48]
  TGI: 3.06 µM
[49]
  TGI: 13.5 µM
[50]
  TGI: 6.8 µM
[51]
  TGI: 6.08 µM
[52]
  TGI: 6.29 µM
[53]
  TGI: 6.16 µM
[54]
  TGI: 18.3 µM
[55]
  TGI: 3.61 µM
[56]
  TGI: 25 µM
[57]
  TGI: 9.32 µM
[58]
  TGI: 4.47 µM
[59]
  TGI: 23.3 µM
[60]
  TGI: 30.8 µM
[61]
  TGI: 9.71 µM
[62]
  TGI: 20.5 µM
[63]
  TGI: 3.35 µM
[64]
  TGI: 20.2 µM
[65]
  TGI: 11.7 µM
[66]
  TGI: 8.12 µM
[67]
  TGI: 11.7 µM
[68]
  TGI: 25.4 µM
[69]
  TGI: 12.3 µM
